Reference: US20190083420A1, “METHODS OF USING (2R, 6R)-HYDROXYN[…] (2S, 6S)-HYDROXYN[…] THE TREATMENT OF DEPRESSION, ANXIETY, ANHEDONIA, FATIGUE, SUICIDAL IDEATION, AND POST TRAUMATIC STRESS DISORDERS” (The Uinited States of America, as represented by the …, priority 2016, published 2019)

How the values were obtained:
male CD-1 mice [1] = test: Learned helplessness (LH); assay type: in vivo; conditions: single injection; for antidepressant-like effect in learned helplessness (escape failures): test 24 hours after administration
Excerpt: (§1) Male CD-1 mice (8-10 weeks old, Charles River Laboratories, Mass., USA) were housed in groups of four-five per cage with a constant 12-hour light/dark cycle (lights on/off at 07:00/19:00). Food and water were available ad libitum. Mice acclimatized to the new environment for seven days prior to the start of the experiments. For the whole-cell NMDA current electrophysiological recordings, male Sprague-Dawley rats (housed three per cage; Charles River, Wilmington, Mass.) were used. EPSC recording were done from rats at postnatal day 24-25. All experimental procedures were approved by the University of Maryland, Baltimore Animal Care and Use Committee and were conducted in full accordance with the National Institutes of Health Guide for the Care and Use of Laboratory Animals.
The LH paradigm consisted of three different phases, i.e., inescapable shock training, LH screening, and the LH test. For the inescapable shock portion of the test (Day 1), the animals were placed in one side of two-chambered shuttle boxes (34 cm height×37 cm width×18 cm depth; Coulbourn Instruments, PA, USA), with the door between the chambers closed. Following a five-min adaptation period, 120 inescapable foot-shocks (0.45 mA, 15 sec duration, randomized average inter-shock interval of 45 sec) were delivered through the grid floor. During the screening session (Day 2), the mice were placed in one of the two chambers of the apparatus for 5 min. A shock (0.45 mA) was then delivered, and the door between the two chambers was raised simultaneously. Crossing over into the second chamber terminated the shock. […] A total of 30 screening trials of escapable shocks were presented to each mouse with an average of 30 sec delay between each trial. Mice that developed helplessness behavior (>5 escape failures during the last 10 screening shocks) were administered with the respective drug 24 hours following screening (Day 3). During the LH test phase (Day 4), the animals were placed in the shuttle boxes and, after a 5-min adaptation period, a 0.45 mA shock was delivered concomitantly with door opening for the first five trials, followed by a 2-sec delay for the next 40 trials. Crossing over to the second chamber terminated the shock. […] A total of 45 trials of escapable shock were presented to each mouse with 30 sec inter-trial intervals. The number of escape failures was recorded for each mouse.

mice [2] = test: Open field test (locomotor activity); assay type: in vivo; conditions: 1 hour after i.p. drug
Method: Mice were placed into individual open-field arenas (50 cm length×50 cm width×38 cm height; San Diego Instruments, San Diego, Calif., USA) for a 60-min habituation period. Mice were then injected with the respective drug and assessed for locomotor activity for another 60 min. Distance travelled was analyzed using TopScan v2.0 (CleverSys, Inc, Reston, Va., USA).

mice [3] = test: Accelerating rotarod (motor coordination); assay type: in vivo; conditions: 5-60 min post-injection, i.p.
Method: The rotarod test was conducted to compare the effects of ketamine, (2S,6S)-HNK and (2R,6R)-HNK on motor coordination. The experiment consisted of two phases: training phase (4 days) and a test phase (1 day). On each of the training days five trials (trial time: 3 min) were conducted with an inter-trial interval of two min Mice were individually placed on the rotarod apparatus (HTC Life Science; Woodland Hills, Calif., USA) and the rotor (3.75 inch diameter) accelerated from 5-20 RPM over a period of three minutes. Latency to fall was recorded for each trial. Animals with an average of <100 sec of latency to fall during the last training day were excluded from the experiment. On the test day (day 5), mice received (i.p.) injections of saline, (R,S)-KET (10 mg/kg), (2S,6S)-HNK (25 or 125 mg/kg) or (2R,6R)-HNK (2.5 or 125 mg/kg) and were tested in the rotating rod 5-. 10-, 15-, 20-, 30- and 60-min post-injection using the same procedure described for the training days.

[4] = Tissue distribution of ketamine and metabolites (plasma and brain levels)
Method: Mice were euthanized by a 30-sec exposure to 3% isoflurane and decapitated at 10, 30, 60, 240 or 480 minutes following drug administration. Trunk blood was collected in EDTA-containing tubes and centrifuged at 8000 rpm for 6 min (4° C.). Plasma was collected and stored at −80° C. until analysis. Whole brains were simultaneously collected, rinsed with phosphate-buffered saline, immediately frozen in dry ice and stored at −80° C. until analysis.
The concentrations of ketamine and its metabolites in plasma and brain tissue were determined by achiral liquid chromatography-tandem mass spectrometry. For plasma samples, the calibration standards for (R,S)-ketamine, (R,S)-norketamine, (2R,6R;2S,6S)-HNK and (R,S)-DHNK ranged from 10,000 ng/ml to 19 ng/ml. The quantification of (R,S)-ketamine, (R,S)-norketamine, (R,S)-DHNK, and the HNK stereoisomers was accomplished by calculating area ratios using D4-ketamine (10 μl of 10 μg/ml solution) as the internal standard. Whole brains were suspended in 990 μl of water:methanol (3:2, v/v), D4-ketamine (10 μl of 10 μg/ml) added and the resulting mixture homogenized on ice with a polytron homogenizer and centrifuged at 21,000×g for 30 min. The supernatant was collected and processed using 1 ml Oasis HLB solid phase extraction cartridges (Waters Corp., Waltham, Mass.). The cartridges were preconditioned with 1 ml of methanol, followed by 1 ml of water and then 1 ml ammonium acetate [10 mM, pH 9.5]. The supernatants were added to the cartridges, followed by 1 ml of water and the compounds were eluted with 1 ml of methanol. The eluent was transferred to an autosampler vial for analysis. QC standards for the analysis of (R,S)-ketamine, (R,S)-norketamine, (R,S)-DHNK and (2R,6R;2S,6S)-HNK ranged from 10,000 ng/ml to 19 ng/ml, and quantification was accomplished using D4-(R,S)-ketamine as the internal standard. QC standards were prepared daily by adding 10 μl of the appropriate standard solution and 10 μl of internal standard solution (100 ng/ml) to methanol.

[5] = plasma of humans; cited from earlier work
male CD-1 mice [6] = test: Forced-swim test (FST); assay type: in vivo; conditions: 1- and 24-hours post-injection, times not separated, i.p.
Excerpt: as §1
Mice were tested in the FST 1 hour and/or 24 hours post-injection. During the FST, mice were subjected to a 6-min swim session in clear Plexiglass cylinders (30 cm height×20 cm diameter) filled with 15 cm of water (23±1° C.). The FST was performed in normal light conditions (800 Lux). Sessions were recorded using a digital video-camera. Immobility time, defined as passive floating with no additional activity other than that necessary to keep the animal's head above water, was scored for the last 4 min of the 6-min test by a trained observer blind to the treatment.
All drugs were dissolved in 0.9% saline, and administered intraperitoneally (i.p.) in a volume of 7.5 ml/kg of body mass. Corticosterone (4-pregnen-11β, 21-diol-3, 20-dione 21-hemisuccinate; Steraloids, Newport, R.I., USA) was dissolved in tap water. For the electrophysiology recordings, test drugs were diluted in artificial cerebrospinal fluid (AC SF).

male CD-1 mice [7] = test: Novelty-suppressed feeding (NSF); assay type: in vivo; conditions: i.p.
Excerpt: as §1
Mice were singly housed and food-deprived for twenty-four hours in freshly-made home-cages. Two normal chow diet pellets were placed on a square food platform (10×10 cm) in the center of an open-field arena (40×40 cm). […] The time needed for the mice to take a bite of food was recorded over a 10 min period by a trained observer blind to the treatment groups. After the test, the mice were returned to their home cage containing pre-weighed food pellets, and latency to bite the food as well as consumption was recorded for a period of 10 min.

NMDA receptor = conditions: (S)-ketamine versus (R)-ketamine; cited from earlier work

In the case of `N[C@]1(c2ccccc2Cl)CCC[C@H](O)C1=O` [(2S,6S)-HNK, (2S,6S)-2-amino-2-(2-chlorophenyl)-6-hydroxycyclohexanone], the “doses with antidepressant-like effects in learned helplessness” value (male CD-1 mice [1]) is reported as 75 mg/kg, the “antidepressant-like effect in learned helplessness (escape failures)” value (male CD-1 mice [1]) is reported as “induced antidepressant-like effects” and the “locomotor activity in the open-field test” value (mice [2]) is reported as “increased locomotor activity”. The “locomotor activity in the open-field test” value (mice [2]; listed as (2S,6S)-hydroxynorketamine) was “dose-dependently changed locomotor activity”, the “motor coordination in the rotarod” value (mice [3]) was “motor incoordination” and the “motor coordination in the rotarod” value (mice [3]; listed as (2S,6R)-HNK) was “induced motor incoordination”. For the same compound, the “brain hydroxynorketamine levels after administration of (2S,6S)-HNK versus (2R,6R)-HNK” value ([4]; brain) was “higher brain hydroxynorketamine levels compared to (2R,6R)-HNK”.

In the case of `N[C@@]1(c2ccccc2Cl)CCC[C@@H](O)C1=O` [(2S,6S;2R,6R)-HNK, (2S,6S;2R,6R)-hydroxynorketamine], the “metabolite found in plasma following ketamine administration” value [5] is listed as “major HNK metabolite”, the “brain levels following ketamine administration, female mice compared to males” value ([4]; brain) is listed as “three fold higher” and the “metabolite found in plasma and brain following ketamine administration” value ([4]; mice, (R,S)-KET 10 mg/kg i.p.) is listed as “major HNK metabolite”.

With `CN[C@@]1(c2ccccc2Cl)CCCCC1=O` [(R)-ketamine, reference compound] the “antidepressant-like effect in learned helplessness (escape failures)” value (male CD-1 mice [1]) was “greater potency”, the “antidepressant effect in the FST (immobility time)” value (male CD-1 mice [6]) was “greater potency” and the “antidepressant-like effect in novelty-suppressed feeding (latency to feed)” value (male CD-1 mice [7]) was “greater potency”. For the same compound, the “brain levels of (R)-ketamine compared to (S)-ketamine” value ([4]; brain, after (S)- and (R)-KET) was “does not result from higher brain levels”.

In the case of `CN[C@]1(c2ccccc2Cl)CCCCC1=O` [(S)-ketamine], the “potency as inhibitor of the NMDA receptor relative to (R)-ketamine” value (NMDA receptor) is listed as roughly 4 fold.
